Results: patent US10246469B2, “Biaryl kinase inhibitors” (BRISTOL-MYERS SQUIBB COMPANY, priority 2015, dated 2019)

Each compound was assayed against T1, GST-Xa-hAAK1 (Homo sapiens, UniProt Q2M2I8) (assay: AAK1 Kinase Assay). Conditions: bacterially expressed GST-Xa-hAAK1 3.5 nM; ATP 22 μM; fluoresceinated peptide 1.5 μM; 3 hours at room temperature; Caliper LabChip 3000.
T1 construct: GST (N); Factor Xa cleavage site (Xa) (internal); made in house
T1 sequence (Q2M2I8 whole entry): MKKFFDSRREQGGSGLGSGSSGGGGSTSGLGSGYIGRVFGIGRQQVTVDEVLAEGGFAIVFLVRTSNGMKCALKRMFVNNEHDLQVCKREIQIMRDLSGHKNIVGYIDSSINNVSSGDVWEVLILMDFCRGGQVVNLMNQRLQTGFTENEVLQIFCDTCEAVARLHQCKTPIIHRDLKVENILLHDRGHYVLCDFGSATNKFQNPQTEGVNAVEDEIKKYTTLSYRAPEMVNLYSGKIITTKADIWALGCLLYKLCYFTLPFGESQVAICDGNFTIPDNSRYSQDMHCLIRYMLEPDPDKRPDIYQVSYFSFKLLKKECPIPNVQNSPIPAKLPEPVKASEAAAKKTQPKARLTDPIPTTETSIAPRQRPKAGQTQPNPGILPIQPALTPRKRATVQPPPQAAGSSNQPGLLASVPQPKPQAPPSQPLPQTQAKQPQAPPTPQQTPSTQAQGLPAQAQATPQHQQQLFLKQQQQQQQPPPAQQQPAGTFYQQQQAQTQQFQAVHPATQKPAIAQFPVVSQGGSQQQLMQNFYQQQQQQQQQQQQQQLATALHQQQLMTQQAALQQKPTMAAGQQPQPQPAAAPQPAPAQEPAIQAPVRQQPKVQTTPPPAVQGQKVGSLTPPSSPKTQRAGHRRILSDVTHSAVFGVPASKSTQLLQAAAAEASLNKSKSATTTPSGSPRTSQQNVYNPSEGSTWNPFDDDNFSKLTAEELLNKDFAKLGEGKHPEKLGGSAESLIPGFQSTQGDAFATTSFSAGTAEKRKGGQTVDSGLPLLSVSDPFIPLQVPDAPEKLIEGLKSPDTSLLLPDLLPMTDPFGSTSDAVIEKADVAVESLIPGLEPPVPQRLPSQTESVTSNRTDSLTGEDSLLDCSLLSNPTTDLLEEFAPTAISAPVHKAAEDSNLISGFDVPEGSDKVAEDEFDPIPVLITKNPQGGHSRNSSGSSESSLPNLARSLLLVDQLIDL
Type: biochemical
Protocol: The assays were performed in U-bottom 384-well plates. The final assay volume was 30 μl prepared from 15 μl additions of enzyme and substrates (fluoresceinated peptide (5-FAM)-Aha-[…]-NH2 and ATP) and test compounds in assay buffer (10 mM Tris-HCL pH 7.4, 10 mM MgCl2, 0.01% Tween-20 and 1.0 mM DTT). The reactions were initiated by the combination of bacterially expressed, GST-Xa-hAAK1 with substrates and test compounds. The reactions were incubated at room temperature for 3 hours and terminated by adding 60 μl of 35 mM EDTA buffer to each sample. The reactions were analyzed on the Caliper LabChip 3000 (Caliper, Hopkinton, Mass.) by electrophoretic separation of the fluorescent substrate and phosphorylated product. […] The final concentration of reagents in the assays are ATP, 22 μM; (5-FAM)-Aha-[…]-NH2, 1.5 μM; GST-Xa-hAAK1, 3.5 nM; and DMSO, 1.6%. […] Compounds were dissolved at 10 mM in dimethylsulfoxide (DMSO) and evaluated at eleven concentrations. IC50 values were derived by non-linear regression analysis.
In the case of Cc1csc(Nc2nccc(-c3ccc(OC[C@@](C)(N)CC(C)C)c(C(F)(F)F)c3)n2)n1 [Example 376, (S)—N-(4-(4-((2-amino-2,4-dimethylpentyl)oxy)-3-(trifluoromethyl)phenyl)pyrimidin-2-yl)-4-methylthiazol-2-amine], the IC50 is reported as 0.8 nM.
CC(C)C[C@](C)(N)COc1ccc(-c2ccnc3[nH]c(N)nc23)cc1C#N [Example 254, (S)-2-((2-amino-2,4-dimethylpentyl)oxy)-5-(2-amino-3H-imidazo[4,5-b]pyridin-7-yl)benzonitrile] was tested, and the IC50 was 22 nM.
Cc1csc(Nc2nccc(-c3ccc(OC[C@@](C)(N)CC(C)C)c(C#N)c3)n2)n1 [Example 380, (S)-2-((2-amino-2,4-dimethylpentyl)oxy)-5-(2-((4-methylthiazol-2-yl)amino)pyrimidin-4-yl)benzonitrile] gave an IC50 of 1 nM.
Work on Cc1nc2c(-c3ccc(OC[C@@](C)(N)CC(C)C)c(Cl)c3)ccnc2[nH]1 [Example 282, (S)-1-(2-chloro-4-(2-methyl-3H-imidazo[4,5-b]pyridin-7-yl)phenoxy)-2,4-dimethylpentan-2-amine] yielded an IC50 of 36 nM.
Compound CC(C)CC(N)(CO)COc1cnc(-c2ccnc(C(F)F)c2)cc1C(F)F (stereo not shown) [Example 277, 2-amino-2-(((2′,4-bis(difluoromethyl)-[2,4′-bipyridin]-5-yl)oxy)methyl)-4-methylpentan-1-ol] has an IC50 of 1.8 nM.
Cc1nc(-c2ccnc3ccnn23)ccc1OC[C@@](C)(N)CC(C)C [Example 488, (S)-2,4-dimethyl-1-((2-methyl-6-(pyrazolo[1,5-a]pyrimidin-7-yl)pyridin-3-yl)oxy)pentan-2-amine] was tested, and the IC50 was 4 nM.
Work on CC(C)C[C@](C)(N)COc1ccc(-c2ccnc3c2C(=O)N(C)C3)cc1C(F)(F)F [Example 426, (S)-4-(4-((2-amino-2,4-dimethylpentyl)oxy)-3-(trifluoromethyl)phenyl)-6-methyl-6,7-dihydro-5H-pyrrolo [3,4-b]pyridin-5-one] yielded an IC50 of 7.2 nM.
For CC(C)C[C@](C)(N)COc1ccc(-c2ccnc(NC3CCCOC3)c2)cc1Cl (single isomer, unassigned) [Example 340], the IC50 was 110 nM.
Cc1cn2nccc(-c3ccc(OC[C@@](C)(N)CC(C)C)c(F)c3)c2n1 [Example 497, (S)-1-(2-fluoro-4-(2-methylimidazo [1,2-b]pyridazin-8-yl)phenoxy)-2,4-dimethylpentan-2-amine] was tested, and the IC50 was 11 nM.
CC(C)C[C@](C)(N)COc1ccc(-c2cc(Cl)nn3ccnc23)cc1C#N [Example 286, (S)-2-((2-amino-2,4-dimethylpentyl)oxy)-5-(6-chloroimidazo[1,2-b]pyridazin-8-yl)benzonitrile] showed an IC50 of 47 nM.
In the case of CC(C)C[C@](C)(N)COc1ccc(-c2ccnc(NC(=O)c3cnn[nH]3)c2)cc1C(F)(F)F [Example 406, (S)—N-(4-(4-((2-amino-2,4-dimethylpentyl)oxy)-3-(trifluoromethyl)phenyl)pyridin-2-yl)-1H-1,2,3-triazole-5-carboxamide], the IC50 is reported as 0.3 nM.
Cc1cc(-c2ccnn3cc(C(F)(F)F)nc23)ccc1OC[C@@](C)(N)CC(C)C [Example 500, (S)-2,4-dimethyl-1-(2-methyl-4-(2-(trifluoromethyl)imidazo[1,2-b]pyridazin-8-yl)phenoxy)pentan-2-amine] gave an IC50 of 30 nM.
Work on COC(=O)Nc1cc(-c2ccc(OC[C@@](C)(N)CC(C)C)c3ncsc23)ccn1 [Example 269, (S)-methyl (4-(4-((2-amino-2,4-dimethylpentyl)oxy)benzo[d]thiazol-7-yl)pyridin-2-yl)carbamate] yielded an IC50 of 3.4 nM.
Cc1cc(-c2ccnc3c2C(=O)NC3)ccc1OC[C@@](C)(N)CC(C)C [Example 428, (S)-4-(4-((2-amino-2,4-dimethylpentyl)oxy)-3-methylphenyl)-6,7-dihydro-5H-pyrrolo[3,4-b]pyridin-5-one] was tested, and the IC50 was 13 nM.
Work on CC(C)C[C@](C)(N)COc1ccc(-c2ccnc3cc(C4CC4)nn23)cc1Cl [Example 482, (S)-1-(2-chloro-4-(2-cyclopropylpyrazolo[1,5-a]pyrimidin-7-yl)phenoxy)-2,4-dimethylpentan-2-amine] yielded an IC50 of 1.4 nM.
Work on CC(C)C[C@](C)(N)COc1ccc(-c2ccnc(Nc3nccs3)c2)cc1Cl [Example 257, (S)—N-(4-(4-((2-amino-2,4-dimethylpentyl)oxy)-3-chlorophenyl)pyridin-2-yl)thiazol-2-amine] yielded an IC50 of 0.45 nM.
In the case of CC(C)C[C@](C)(N)COc1ccc(-c2ccnc(NC3CCCOC3)c2)cc1Cl (single isomer, unassigned) [Example 339], the IC50 is reported as 17 nM.
With Cc1cc(-c2cnc3cccnn23)ccc1OC[C@@](C)(N)CC(C)C [Example 502, (S)-1-(4-(imidazo[1,2-b]pyridazin-3-yl)-2-methylphenoxy)-2,4-dimethylpentan-2-amine] the IC50 was 144 nM.
CC(C)C[C@](C)(N)COc1ccc(-c2ncnc3c2ccn3C)cc1C(F)(F)F [Example 366, (S)-2,4-dimethyl-1-(4-(7-methyl-7H-pyrrolo[2,3-d]pyrimidin-4-yl)-2-(trifluoromethyl)phenoxy)pentan-2-amine] showed an IC50 of 60 nM.
CC(C)C[C@](C)(N)COc1ccc(-c2ccnc3[nH]c(N)nc23)cc1C(F)(F)F [Example 255, (S)-7-(4-((2-amino-2,4-dimethylpentyl)oxy)-3-(trifluoromethyl)phenyl)-3H-imidazo [4,5-b]pyridin-2-amine] showed an IC50 of 42 nM.
Cc1nc2c(-c3ccc(OC[C@@](C)(N)CC(C)C)c(C)c3)ccnc2[nH]1 [Example 294, (S)-2,4-dimethyl-1-(2-methyl-4-(2-methyl-3H-imidazo[4,5-b]pyridin-7-yl)phenoxy)pentan-2-amine] was tested, and the IC50 was 120 nM.
Work on CC(C)C[C@](C)(N)COc1ccc(-c2ncnc3[nH]ccc23)cc1C#N [Example 362, (S)-2-((2-amino-2,4-dimethylpentyl)oxy)-5-(7H-pyrrolo[2,3-d]pyrimidin-4-yl)benzonitrile] yielded an IC50 of 1 nM.
CC(C)C[C@](C)(N)COc1ccc(-c2cc(N)nc3ccnn23)c(F)c1 [Example 455, (S)-7-(4-((2-amino-2,4-dimethylpentyl)oxy)-2-fluorophenyl)pyrazolo[1,5-a]pyrimidin-5-amine] gave an IC50 of 391 nM.
Work on CC(C)C[C@](C)(N)COc1ccc(-c2ccnc(Nc3nccs3)c2)cc1C(F)(F)F [Example 256, (S)—N-(4-(4-((2-amino-2,4-dimethylpentyl)oxy)-3-(trifluoromethyl)phenyl)pyridin-2-yl)thiazol-2-amine] yielded an IC50 of 0.82 nM.
For CC(C)C[C@](C)(N)COc1ccc(-c2ccnc(NC3CCCOC3)c2)cc1Cl (mixture of isomers) [Example 338, 4-(4-(((S)-2-amino-2,4-dimethylpentyl)oxy)-3-chlorophenyl)-N-(tetrahydro-2H-pyran-3-yl)pyridin-2-amine], the IC50 was 35 nM.
For CC(C)C[C@](C)(N)COc1ccc(-c2ccnc3c2C(=O)NC3)cc1C#N [Example 415, (S)-2-((2-amino-2,4-dimethylpentyl)oxy)-5-(5-oxo-6,7-dihydro-5H-pyrrolo[3,4-b]pyridin-4-yl)benzonitrile], the IC50 was 3.1 nM.
Compound CC(C)C[C@](C)(N)COc1ccc(-c2ccnc(NC(=O)C3CC3)c2)cc1C(F)(F)F [Example 389, (S)—N-(4-(4-((2-amino-2,4-dimethylpentyl)oxy)-3-(trifluoromethyl)phenyl)pyridin-2-yl)cyclopropanecarboxamide] has an IC50 of 0.3 nM.
In the case of CC(C)C[C@](C)(N)COc1ccc(-c2ccnc(NC3CCCC3)n2)cc1C(F)(F)F [Example 377, (S)-4-(4-((2-amino-2,4-dimethylpentyl)oxy)-3-(trifluoromethyl)phenyl)-N-cyclopentylpyrimidin-2-amine], the IC50 is reported as 7.4 nM.
For CC(C)C[C@](C)(N)COc1ccc(-c2ccnc3c2C(=O)NC3)cc1C(F)(F)F [Example 425, (S)-4-(4-((2-amino-2,4-dimethylpentyl)oxy)-3-(trifluoromethyl)phenyl)-6,7-dihydro-5H-pyrrolo [3,4-b]pyridin-5-one], the IC50 was 1.4 nM.
In the case of CC(C)C[C@](C)(N)COc1ccc(-c2ccnc(NC(=O)CC3CCCCCC3)c2)cc1C(F)(F)F [Example 399, (S)—N-(4-(4-((2-amino-2,4-dimethylpentyl)oxy)-3-(trifluoromethyl)phenyl)pyridin-2-yl)-2-cycloheptylacetamide], the IC50 is reported as 5.9 nM.
Compound Cc1csc(Nc2cc(-c3ccc(OC[C@@](C)(N)CC(C)C)c(Cl)c3)ccn2)n1 [Example 262, (S)—N-(4-(4-((2-amino-2,4-dimethylpentyl)oxy)-3-chlorophenyl)pyridin-2-yl)-4-methylthiazol-2-amine] has an IC50 of 1.9 nM.
Compound CC(C)C[C@](C)(N)COc1ccc(-c2ccnc(NC(=O)C3CCC3)c2)cc1C(F)(F)F [Example 390, (S)—N-(4-(4-((2-amino-2,4-dimethylpentyl)oxy)-3-(trifluoromethyl)phenyl)pyridin-2-yl)cyclobutanecarboxamide] has an IC50 of 0.5 nM.
For CC(C)C[C@](C)(N)COc1ccc(-c2ccnc(NC(=O)c3cnccn3)c2)cc1C(F)(F)F [Example 404, (S)—N-(4-(4-((2-amino-2,4-dimethylpentyl)oxy)-3-(trifluoromethyl)phenyl)pyridin-2-yl)pyrazine-2-carboxamide], the IC50 was 0.7 nM.
With CC(C)C[C@](C)(N)COc1ncc(-c2ccnc3ccnn23)cc1Cl [Example 272, (S)-1-((3-chloro-5-(pyrazolo[1,5-a]pyrimidin-7-yl)pyridin-2-yl)oxy)-2,4-dimethylpentan-2-amine] the IC50 was 0.8 nM.
